Experiment: xn = mol fraction of the nth substance listed
Conditions: 101.32 kPa, Liquid

COCCOCCOCCOCCOC [2,5,8,11,14-pentaoxapentadecane] + CCO
mass density [kg/m3]
Conditions	288.15 K	298.15 K	308.15 K	318.15 K
x1 = 0.0045	797.9	789.4	780.7	771.9
x1 = 0.0085	801.4	792.9	784.2	775.3
x1 = 0.0125	804.8	796.3	787.6	778.7
x1 = 0.0165	808.2	799.6	790.9	782
x1 = 0.0205	811.5	802.9	794.2	785.3
x1 = 0.0305	819.5	810.8	802	793.1
x1 = 0.05	833.6	824.9	816.1	807.1
x1 = 0.1	864.1	855.1	846.2	837.1
x1 = 0.15	888	878.9	869.9	860.7
x1 = 0.2	907.3	898.1	889.1	879.9
x1 = 0.25	923.3	914.1	905	895.7
x1 = 0.3	936.6	927.4	918.2	908.9
x1 = 0.35	947.9	938.6	929.5	920.2
x1 = 0.4	957.6	948.3	939.2	929.8
x1 = 0.45	966	956.7	947.5	938.2
x1 = 0.5	973.4	964.1	954.9	945.5
x1 = 0.55	979.9	970.6	961.3	952
x1 = 0.6	985.7	976.3	967.1	957.8
x1 = 0.6499	990.9	981.5	972.3	963
x1 = 0.7	995.6	986.2	977	967.6
x1 = 0.7498	999.8	990.4	981.2	971.9
x1 = 0.7999	1003.6	994.2	985	975.6
x1 = 0.8499	1007	997.7	988.4	979.1
x1 = 0.8997	1010.2	1000.9	991.6	982.4
x1 = 0.9496	1013.2	1003.8	994.6	985.3
x1 = 1	1016	1006.6	997.4	988.1

COCCOCCOCCOC [2,5,8,11-tetraoxadodecane] + CCO
mass density [kg/m3]
Conditions	288.15 K	298.15 K	308.15 K	318.15 K
x1 = 0.0045	796.7	788.2	779.5	770.6
x1 = 0.0085	799.3	790.7	782	773.1
x1 = 0.0125	801.7	793.2	784.4	775.5
x1 = 0.0165	804.2	795.6	786.8	778
x1 = 0.0205	806.6	798	789.2	780.3
x1 = 0.0305	812.4	803.7	794.9	786
x1 = 0.05	823	814.2	805.4	796.4
x1 = 0.1	846.7	837.7	828.8	819.7
x1 = 0.15	866.4	857.3	848.3	839
x1 = 0.2	882.9	873.6	864.5	855.2
x1 = 0.25	896.9	887.7	878.6	869.2
x1 = 0.3	909.2	900	890.7	881.4
x1 = 0.35	919.8	910.5	901.3	891.9
x1 = 0.4	929.2	919.8	910.5	901.1
x1 = 0.4499	937.4	928	918.6	909.2
x1 = 0.5	944.8	935.3	925.9	916.4
x1 = 0.55	951.4	941.9	932.4	922.9
x1 = 0.6	957.3	947.7	938.3	928.8
x1 = 0.65	962.7	953.1	943.7	934.2
x1 = 0.7	967.5	958	948.6	939
x1 = 0.75	972	962.4	953	943.5
x1 = 0.7999	976.1	966.5	957.1	947.5
x1 = 0.8499	979.9	970.3	960.8	951.3
x1 = 0.8998	983.4	973.8	964.3	954.8
x1 = 0.9498	986.7	977.1	967.6	958.1
x1 = 1	989.7	980.1	970.7	961.1

COCCOCCOC [2,5,8-trioxanonane] + CCO
mass density [kg/m3]
Conditions	288.15 K	298.15 K	308.15 K	318.15 K
x1 = 0.0045	795.6	787	778.4	769.6
x1 = 0.0085	797.1	788.6	779.9	771.1
x1 = 0.0125	798.7	790.1	781.5	772.6
x1 = 0.0165	800.3	791.7	783	774.1
x1 = 0.0205	801.8	793.2	784.4	775.6
x1 = 0.0305	805.5	796.9	788.1	779.2
x1 = 0.05	812.6	803.8	795	786
x1 = 0.1	828.7	819.7	810.7	801.5
x1 = 0.15	842.6	833.6	824.5	815.1
x1 = 0.2	855	845.8	836.5	827.1
x1 = 0.25	865.9	856.6	847.3	837.8
x1 = 0.3	875.7	866.3	856.9	847.3
x1 = 0.35	884.5	875	865.5	855.8
x1 = 0.4	892.4	882.9	873.2	863.5
x1 = 0.45	899.6	889.9	880.2	870.5
x1 = 0.4999	906	896.4	886.7	876.8
x1 = 0.55	912	902.3	892.5	882.6
x1 = 0.5999	917.4	907.7	897.8	887.9
x1 = 0.65	922.5	912.6	902.8	892.8
x1 = 0.6999	927.1	917.2	907.3	897.3
x1 = 0.7499	931.3	921.4	911.5	901.5
x1 = 0.7999	935.3	925.4	915.4	905.4
x1 = 0.8499	939	929	919.1	909
x1 = 0.8998	942.4	932.4	922.5	912.5
x1 = 0.9498	945.7	935.7	925.7	915.7
x1 = 1	948.6	938.7	928.7	918.6

Source: the NIST ThermoML archive (doi:10.1021/je0302304)
